Source: US6706740B2, “Fungicidal heterocyclic aromatic amides and their compositions, methods of use and preparation” (Dow AgroSciences LLC, priority 1999, dated 2004)

The compounds below were run on Phytophthora infestans (PHYTIN) (assay: microbe, parasite or virus in culture). Conditions: Phytophthora infestans, read-out: PHYTIN in vitro Growth Inhibition.
Type: cell-based
Work on `COc1ccnc(C(=O)Nc2ccccc2Oc2ccc(C#N)cc2)c1O` [Compound 419] yielded an inhibition at 25 ppm of less than 80%.
In the case of `COCCC(=O)Oc1c(OC)ccnc1C(=O)Nc1ccc(Sc2cccc(C(F)(F)F)c2)cc1` [Compound 712], the inhibition at 25 ppm is reported as less than 80%.
`COc1ccnc(C(=O)NC(C(=O)OCC(C)C)C(C)OC(=O)C(C)Cc2ccccc2)c1O` (centres unmarked) [Compound 360] showed an inhibition at 25 ppm of less than 80%.
`COc1ccnc(C(=O)N[C@H]2CO[C@H](C(C)Cc3ccc(C(C)(C)C)cc3)OC2)c1O` (some centres unmarked) [Compound 316] was tested, and the inhibition at 25 ppm was less than 80%.

The compounds below were run on Mycosphaerella graminicola (Septoria tritici—SEPTTR) (assay: In vitro fungal growth inhibition, Mycosphaerella graminicola (SEPTTR)). Conditions: Zymoseptoria tritici; 25 ppm in growth medium; read-out: SEPTTR in vitro Growth Inhibition.
Type: cell-based
For `COc1ccnc(C(=O)Nc2ccccc2Oc2ccc(C#N)cc2)c1O` [Compound 419], the inhibition at 25 ppm was less than 80%.
Compound `COCCC(=O)Oc1c(OC)ccnc1C(=O)Nc1ccc(Sc2cccc(C(F)(F)F)c2)cc1` [Compound 712] has an inhibition at 25 ppm greater than 80%.
`COc1ccnc(C(=O)NC(C(=O)OCC(C)C)C(C)OC(=O)C(C)Cc2ccccc2)c1O` (centres unmarked) [Compound 360] gave an inhibition at 25 ppm of less than 80%.
`COc1ccnc(C(=O)N[C@H]2CO[C@H](C(C)Cc3ccc(C(C)(C)C)cc3)OC2)c1O` (some centres unmarked) [Compound 316] showed an inhibition at 25 ppm of less than 80%.

These compounds were tested on Septoria tritici—SEPTTR (assay: Leaf Blotch of Wheat, in vivo whole plant, 24 Hour Protectant). Conditions: 100 ppm spray, wheat, 24 hour protectant, % control of fungal infection vs untreated plants.
`COCCC(=O)Oc1c(OC)ccnc1C(=O)Nc1ccc(Sc2cccc(C(F)(F)F)c2)cc1` [Compound 712] was tested, and the “SEPTTR in vivo 1 Day Protectant” value was “+ +”.

Same assay, conditions: Zymoseptoria tritici, 24 h, 100 ppm spray, 24 hour protectant, wheat; control of fungal infection vs untreated plants; read-out: SEPTTR in vivo 1 Day Protectant
`COc1ccnc(C(=O)N[C@H]2CO[C@H](C(C)Cc3ccc(C(C)(C)C)cc3)OC2)c1O` (some centres unmarked) [Compound 316] was tested, and the pest or weed control at 100 ppm was less than 25%.

Same assay, conditions: Zymoseptoria tritici, 24 h, 100 ppm spray, wheat, 24 hour protectant; control of fungal infection vs untreated plants; read-out: SEPTTR in vivo 1 Day Protectant
With `COc1ccnc(C(=O)Nc2ccccc2Oc2ccc(C#N)cc2)c1O` [Compound 419] the pest or weed control at 100 ppm was less than 25%.
For `COc1ccnc(C(=O)NC(C(=O)OCC(C)C)C(C)OC(=O)C(C)Cc2ccccc2)c1O` (centres unmarked) [Compound 360], the pest or weed control at 100 ppm was 25 to 74%.

The compounds below were run on Rhizoctonia solani (RHIZSO) (assay: microbe, parasite or virus in culture). Conditions: Rhizoctonia solani, read-out: RHIZSO in vitro Growth Inhibition.
Type: cell-based
With `COc1ccnc(C(=O)Nc2ccccc2Oc2ccc(C#N)cc2)c1O` [Compound 419] the inhibition at 25 ppm was less than 80%.
`COCCC(=O)Oc1c(OC)ccnc1C(=O)Nc1ccc(Sc2cccc(C(F)(F)F)c2)cc1` [Compound 712] gave an inhibition at 25 ppm of less than 80%.
For `COc1ccnc(C(=O)NC(C(=O)OCC(C)C)C(C)OC(=O)C(C)Cc2ccccc2)c1O` (centres unmarked) [Compound 360], the inhibition at 25 ppm was less than 80%.
`COc1ccnc(C(=O)N[C@H]2CO[C@H](C(C)Cc3ccc(C(C)(C)C)cc3)OC2)c1O` (some centres unmarked) [Compound 316] was tested, and the inhibition at 25 ppm was less than 80%.

These compounds were tested on Magnaporthe grisea (Pyricularia oryzae—PYRIOR) (assay: microbe, parasite or virus in culture). Conditions: Pyricularia oryzae, read-out: PYRIOR in vitro Growth Inhibition.
Type: cell-based
`COc1ccnc(C(=O)Nc2ccccc2Oc2ccc(C#N)cc2)c1O` [Compound 419] showed an inhibition at 25 ppm of less than 80%.
With `COCCC(=O)Oc1c(OC)ccnc1C(=O)Nc1ccc(Sc2cccc(C(F)(F)F)c2)cc1` [Compound 712] the inhibition at 25 ppm was greater than 80%.
Compound `COc1ccnc(C(=O)NC(C(=O)OCC(C)C)C(C)OC(=O)C(C)Cc2ccccc2)c1O` (centres unmarked) [Compound 360] has an inhibition at 25 ppm of less than 80%.
For `COc1ccnc(C(=O)N[C@H]2CO[C@H](C(C)Cc3ccc(C(C)(C)C)cc3)OC2)c1O` (some centres unmarked) [Compound 316], the inhibition at 25 ppm was greater than 80%.

Each compound was assayed on Puccinia recondita—PUCCRT (assay: Brown Rust of Wheat, in vivo whole plant, 24 Hour Protectant). Conditions: 100 ppm spray, 24 hour protectant, wheat; control of fungal infection vs untreated plants.
In the case of `COc1ccnc(C(=O)N[C@H]2CO[C@H](C(C)Cc3ccc(C(C)(C)C)cc3)OC2)c1O` (some centres unmarked) [Compound 316], the “PUCCRT in vivo 1 Day Protectant” value is reported as “+ +”.

Same assay, conditions: 100 ppm spray, wheat, 24 hour protectant, % control of fungal infection vs untreated plants
With `COCCC(=O)Oc1c(OC)ccnc1C(=O)Nc1ccc(Sc2cccc(C(F)(F)F)c2)cc1` [Compound 712] the “PUCCRT in vivo 1 Day Protectant” value was “+ +”.

Same assay, conditions: Puccinia; 100 ppm spray, wheat, 24 hour protectant; control of fungal infection vs untreated plants; read-out: PUCCRT in vivo 1 Day Protectant
For `COc1ccnc(C(=O)Nc2ccccc2Oc2ccc(C#N)cc2)c1O` [Compound 419], the pest or weed control at 100 ppm was less than 25%.
`COc1ccnc(C(=O)NC(C(=O)OCC(C)C)C(C)OC(=O)C(C)Cc2ccccc2)c1O` (centres unmarked) [Compound 360] was tested, and the pest or weed control at 100 ppm was 25 to 74%.

The compounds below were run on Ustilago maydis (USTIMA) (assay: microbe, parasite or virus in culture). Conditions: Mycosarcoma maydis, read-out: USTIMA in vitro Growth Inhibition.
Type: cell-based
`COc1ccnc(C(=O)Nc2ccccc2Oc2ccc(C#N)cc2)c1O` [Compound 419] showed an inhibition at 25 ppm of less than 80%.
`COCCC(=O)Oc1c(OC)ccnc1C(=O)Nc1ccc(Sc2cccc(C(F)(F)F)c2)cc1` [Compound 712] gave an inhibition at 25 ppm of less than 80%.
`COc1ccnc(C(=O)NC(C(=O)OCC(C)C)C(C)OC(=O)C(C)Cc2ccccc2)c1O` (centres unmarked) [Compound 360] gave an inhibition at 25 ppm of less than 80%.
For `COc1ccnc(C(=O)N[C@H]2CO[C@H](C(C)Cc3ccc(C(C)(C)C)cc3)OC2)c1O` (some centres unmarked) [Compound 316], the inhibition at 25 ppm was greater than 80%.

These compounds were tested on Stagonospora nodorum (Leptosphaeria nodorum—LEPTNO) (assay: In vitro fungal growth inhibition, Stagonospora nodorum (LEPTNO)). Conditions: Leptosphaeria; 25 ppm in growth medium; read-out: LEPTNO in vitro Growth Inhibition.
Type: cell-based
In the case of `COc1ccnc(C(=O)Nc2ccccc2Oc2ccc(C#N)cc2)c1O` [Compound 419], the inhibition at 25 ppm is reported as less than 80%.
With `COCCC(=O)Oc1c(OC)ccnc1C(=O)Nc1ccc(Sc2cccc(C(F)(F)F)c2)cc1` [Compound 712] the inhibition at 25 ppm was greater than 80%.
In the case of `COc1ccnc(C(=O)NC(C(=O)OCC(C)C)C(C)OC(=O)C(C)Cc2ccccc2)c1O` (centres unmarked) [Compound 360], the inhibition at 25 ppm is reported as less than 80%.
With `COc1ccnc(C(=O)N[C@H]2CO[C@H](C(C)Cc3ccc(C(C)(C)C)cc3)OC2)c1O` (some centres unmarked) [Compound 316] the inhibition at 25 ppm was greater than 80%.

These compounds were tested on Phytophthora infestans—PHYTIN (assay: whole plant or invertebrate). Conditions: Phytophthora, in Solanum lycopersicum, 24 h, read-out: PHYTIN in vivo 1 Day Protectant.
Type: in vivo
Compound `COc1ccnc(C(=O)Nc2ccccc2Oc2ccc(C#N)cc2)c1O` [Compound 419] has a pest or weed control at 100 ppm of 25 to 74%.
`COCCC(=O)Oc1c(OC)ccnc1C(=O)Nc1ccc(Sc2cccc(C(F)(F)F)c2)cc1` [Compound 712] showed a pest or weed control at 100 ppm of less than 25%.
For `COc1ccnc(C(=O)NC(C(=O)OCC(C)C)C(C)OC(=O)C(C)Cc2ccccc2)c1O` (centres unmarked) [Compound 360], the pest or weed control at 100 ppm was less than 25%.
`COc1ccnc(C(=O)N[C@H]2CO[C@H](C(C)Cc3ccc(C(C)(C)C)cc3)OC2)c1O` (some centres unmarked) [Compound 316] gave a pest or weed control at 100 ppm of less than 25%.

These compounds were tested on Erysiphe graminis—ERYSGT (assay: Powdery Mildew of Wheat, in vivo whole plant, 24 Hour Protectant). Conditions: 100 ppm spray, wheat, 24 hour protectant, % control of fungal infection vs untreated plants.
In the case of `COCCC(=O)Oc1c(OC)ccnc1C(=O)Nc1ccc(Sc2cccc(C(F)(F)F)c2)cc1` [Compound 712], the “ERYSGT in vivo 1 Day Protectant” value is reported as “+ +”.

Same assay, conditions: Erysiphe; 100 ppm spray, 24 hour protectant, wheat; control of fungal infection vs untreated plants; read-out: ERYSGT in vivo 1 Day Protectant
`COc1ccnc(C(=O)N[C@H]2CO[C@H](C(C)Cc3ccc(C(C)(C)C)cc3)OC2)c1O` (some centres unmarked) [Compound 316] showed a pest or weed control at 100 ppm of less than 25%.

Same assay, conditions: Erysiphe; 100 ppm spray, wheat, 24 hour protectant; control of fungal infection vs untreated plants; read-out: ERYSGT in vivo 1 Day Protectant
`COc1ccnc(C(=O)Nc2ccccc2Oc2ccc(C#N)cc2)c1O` [Compound 419] showed a pest or weed control at 100 ppm of less than 25%.
With `COc1ccnc(C(=O)NC(C(=O)OCC(C)C)C(C)OC(=O)C(C)Cc2ccccc2)c1O` (centres unmarked) [Compound 360] the pest or weed control at 100 ppm was less than 25%.

What follows are compounds tested on Leptosphaeria nodorum—LEPTNO (assay: Glume Blotch of Wheat, in vivo whole plant, 24 Hour Protectant). Conditions: 100 ppm spray, wheat, 24 hour protectant; control of fungal infection vs untreated plants.
In the case of `COc1ccnc(C(=O)NC(C(=O)OCC(C)C)C(C)OC(=O)C(C)Cc2ccccc2)c1O` (centres unmarked) [Compound 360], the “LEPTNO in vivo 1 Day Protectant” value is reported as “+ +”.

Same assay, conditions: Leptosphaeria; 100 ppm spray, 24 hour protectant, wheat; control of fungal infection vs untreated plants; read-out: LEPTNO in vivo 1 Day Protectant
`COc1ccnc(C(=O)N[C@H]2CO[C@H](C(C)Cc3ccc(C(C)(C)C)cc3)OC2)c1O` (some centres unmarked) [Compound 316] was tested, and the pest or weed control at 100 ppm was 25 to 74%.

Same assay, conditions: Leptosphaeria; 100 ppm spray, wheat, 24 hour protectant, % control of fungal infection vs untreated plants; read-out: LEPTNO in vivo 1 Day Protectant
`COCCC(=O)Oc1c(OC)ccnc1C(=O)Nc1ccc(Sc2cccc(C(F)(F)F)c2)cc1` [Compound 712] was tested, and the pest or weed control at 100 ppm was 25 to 74%.

Same assay, conditions: Leptosphaeria; 100 ppm spray, wheat, 24 hour protectant; control of fungal infection vs untreated plants; read-out: LEPTNO in vivo 1 Day Protectant
With `COc1ccnc(C(=O)Nc2ccccc2Oc2ccc(C#N)cc2)c1O` [Compound 419] the pest or weed control at 100 ppm was less than 25%.
